Assay results from PubChem BioAssay (NCI).
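Assay format: 96-well plates, 48-hour exposure. The concentration for full growth arrest is given as TGI.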

Experiments:
Experiment in all cases: inhibition of tumour cell growth, NCI panel, 48 h
NCI/ADR-RES ovarian = system: NCI/ADR-RES ovarian
T-47D breast = system: T-47D breast
COLO 205 colon = system: COLO 205 colon
SR leukemia = system: SR leukemia
SN12C renal = system: SN12C renal
A498 renal = system: A498 renal
SK-MEL-2 melanoma = system: SK-MEL-2 melanoma
HT29 colon = system: HT29 colon
BT-549 breast = system: BT-549 breast
HOP-62 NSCLC = system: HOP-62 NSCLC

SMILES	TGI (NCI/ADR-RES ovarian) [µM]	TGI (T-47D breast) [µM]	TGI (COLO 205 colon) [µM]	TGI (SR leukemia) [µM]	TGI (SN12C renal) [µM]	TGI (A498 renal) [µM]	TGI (SK-MEL-2 melanoma) [µM]	TGI (HT29 colon) [µM]	TGI (BT-549 breast) [µM]	TGI (HOP-62 NSCLC) [µM]
CSc1c(C#N)c(=O)n(N)c2n[nH]c(C)c12	> 100	> 100	> 100	> 100	> 100	> 100	> 100	> 100	> 100	–
CN(C)CCNc1nc2c(c(=O)n(C)c(=O)n2C)n1C	> 100	> 100	> 100	> 100	> 100	> 100	–	> 100	> 100	> 100
O=Cc1ccc(Oc2c3ccccc3nc3ccccc23)cc1	> 100	12.5	10.1	7.19	11.1	14.5	–	4.38	37.4	33.9
COc1ccc(/C=C2/C(=O)C(c3ccccc3)N(c3ccccc3)C2=O)cc1OC (stereo not given)	> 10	> 10	> 10	> 10	> 10	2.75	> 10	> 10	> 10	> 10
Cc1csc(CP(=O)(OC(C)C)OC(C)C)n1	> 100	> 100	> 100	> 100	> 100	> 100	> 100	> 100	> 100	> 100
COc1ccc(OC)c2c1-c1nnnn1CCC2(C)C	> 100	> 100	> 100	> 100	> 100	> 100	> 100	> 100	> 100	> 100
COc1ccccc1N1C(=O)/C(=C\c2ccccc2)SC1c1cc(OC)c(OC)c(OC)c1 (stereo not given)	> 100	37.8	> 100	> 100	87.9	> 100	33	> 100	> 100	> 100
[B]C(=O)NC(CC(C)C)C(=O)NC1c2ccsc2C(=O)C1O (stereo not given) (tested in a mixture with another compound)	> 100	> 100	> 100	> 100	> 100	> 100	> 100	> 100	> 100	> 100
c1ccc2c[n+](Cc3ccnc4ccccc34)ccc2c1	> 100	> 100	> 100	> 100	> 100	> 100	> 100	> 100	> 100	> 100
Cc1c(OCc2cccc3ccccc23)ccc2c(=O)cc(S)oc12	> 100	> 100	> 100	62.1	> 100	> 100	50.4	> 100	> 100	> 100
O=C1CCCC1C(O)(C(F)(F)Cl)C(F)(F)Cl (stereo not given)	> 10	> 10	> 10	> 10	> 10	> 10	> 10	> 10	> 10	> 10
COc1ccc2oc(=O)c(-c3nc4ccccc4s3)cc2c1	> 96	> 100	> 100	> 100	> 100	54.2	> 100	33.1	> 100	> 48.1
CC1(C)C/C=C\CCC(O)C(O)CCC(C)(C)C1=O (stereo not given)	> 100	> 100	> 100	> 100	> 100	> 100	> 100	> 100	> 100	> 100
COC(=O)/C=C/[C@H]1[C@H](C)N1S(=O)(=O)c1ccc(C)cc1 (stereo not given in full)	> 100	> 100	> 100	> 100	> 100	> 100	> 100	> 100	> 100	> 100
COc1cc(CNC(=O)CCCCCCCCCCSC#N)ccc1O	59.7	48.1	94.5	91.5	–	30.3	28.8	87.2	44.6	–
O=[N+]([O-])C(=C(\Cl)NCCO)/C(Cl)=C(/Cl)Br	7.42	3.84	2.74	5.25	5.77	12	4.14	3.67	4.2	29
O=C1CN2CCN(CC2)CC(=O)Nc2ccc(cc2)S(=O)(=O)c2ccc(cc2)NC(=O)CN2CCN(CC2)CC(=O)Nc2ccc(cc2)S(=O)(=O)c2ccc(cc2)N1	> 87.3	> 100	> 100	> 100	> 100	> 100	> 92.3	51	> 87.9	> 93.6
